Reference: paper PMC12320831, “Synthesis and Biological Evaluation of New Chalcogen Semicarbazone (S, Se) and Their Azole Derivatives against Chagas Disease” (Journal of Medicinal Chemistry, 2024)
Values joined by “and” are separate entries in the source; they are usually repeats but may differ in a detail not shown here. Identical values can stand only once. Like-named read-outs stand apart in the source and are kept apart here.

What was measured:
[1] = Host cell cytotoxicity (C2C12 viability); format: cell-based, Mouse; conditions: mouse
Method in brief: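 Mouse C2C12 myoblasts co-seeded with CAI/72 trypomastigotes (10:1 parasite:cell) on compound, 48 h at 37 °C, 5% CO2. DAPI-stained fixed cells imaged; parasites per host cell normalized to 40 μM BNZ and DMSO. EC50 and C2C12 viability from dose-response curves, three biological replicates in triplicate.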

recombinant Cz (cruzain) = biological target: T1, recombinant Cz (cruzain) (Trypanosoma cruzi, UniProt P25779); experiment: biochemical; conditions: for SICz: ratio between IC50 hCatL and IC50 Cz
T1 construct: Cz was expressed and purified as described in da Silva et al; made in house
Method in brief: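 Cruzain (1 nM) was preincubated 10 min with compound in 0.1 M sodium acetate pH 5.5, 1 mM DTT, 0.01% Triton X-100, then 2.5 μM Z-FR-AMC (final) was added. Fluorescence (360/460 nm) was read for 10 min at 25 °C and normalized to DMSO.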

[2] = DPPH radical scavenging (antioxidant) assay; conditions: for Percentage of inhibited DPPH (2 h): mean ± SEM
Experimental: The antioxidant capacity of the selected Se compound was tested using the DPPH assay described by Astrain-Redin. The compound was tested at three different concentrations (0.06, 0.03, and 0.015 mg/mL) and we used two positive controls: ascorbic acid (ASC) and trolox (TRO). A solution of DPPH (2,2-diphenyl-1-picrylhydrazyl) in methanol (0.04 mg/mL, preserved in the dark) was prepared and 100 μL of this stock solution was added to 100 μL of tested compound solution. The color change, from purple (radical) to yellow (reduced), was measured at 517 nm at different time points (0, 5, 15, 30, 60, 90, and 120 min). All measurements were carried out in triplicate and recorded on a BioTek PowerWave XS spectrophotometer (Biotek). Data were collected using BioTek Gen5Microplate reader and Imager software (Agilent, version 3.12). Results are expressed as a percentage of inhibited DPPH ± standard error of the mean (SEM), calculated using the following formula %inhibitedDPPH=Acontrol−Asample/Acontrol×100 where A control refers to the absorbance of the negative control and A sample refers to the absorbance of the tested compound.

[3] = Snapshot pharmacokinetic study in mice; format: in vivo, Balb/c mice
Experimental: Compound Se 2h was administered intravenously (5 mg/kg in 10% dimethyl sulfoxide, 30% propylene glycol, 30% PEG 400, and 30% of 10.0% Tween 80 in DI water) and by oral gavage (50 mg/kg in PEG 400 with 5% 1-methyl-2-pyrrolidone) in two female Balb/c mice (6 weeks old) for each group. Blood samples (∼25 μL) were collected with heparinized capillary tubes via the eye vein on mice anesthetized with isoflurane precompound administration and in the following times post administration: 30 min, 1 h, 2 h, 4 h. Samples were immediately centrifuged for plasma collection (supernatant). The animal experiment was approved by the UC San Diego IACUC committee under the protocol S14187 and follow all the ethical standards. The material was submitted for mass spectrometry quantification with provided known amounts spiked in naïve plasma for reference curve.

T1 sequence (P25779 123-337 limits assumed): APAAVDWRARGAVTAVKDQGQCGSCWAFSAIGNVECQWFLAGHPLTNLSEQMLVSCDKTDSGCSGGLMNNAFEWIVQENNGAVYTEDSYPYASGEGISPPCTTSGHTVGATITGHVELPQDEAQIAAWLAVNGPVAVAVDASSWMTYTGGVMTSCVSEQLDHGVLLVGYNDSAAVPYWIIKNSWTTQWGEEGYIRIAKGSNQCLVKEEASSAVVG

C/C(=N\Nc1nc(C)c[se]1)c1cccc([N+](=O)[O-])c1.Cl [Se2h, (E)-4-Methyl-2-(2-(1-(3-nitrophenyl)ethylidene)hydrazineyl)-1,3-selenazole Hydrochloride]
viability at 48 h, 10 µM ([1]; 10 µM, < 50% viability considered cytotoxic): > 100% | CC50 at 48 h ([1]; viability calculated at 10 μM): > 10000 nM | Cz inhibition (%) (recombinant Cz (cruzain); 10 µM): 100.09% | IC50 (recombinant Cz (cruzain); IC50 Cz, single biological replicate (Figure 3), each of two biological replicates in triplicate): 3.4 nM and 14.5 nM | IC50 (recombinant Cz (cruzain); mean of two experiments in triplicate (n = 6) ± SEM, read-out: IC50 Cz): 8.99 ± 5.56 nM | SICz (recombinant Cz (cruzain)): 148.83 | SICz (recombinant Cz (cruzain); listed as Se 2h): 149 | inhibition at 10 µM (recombinant Cz (cruzain); read-out: Cz inhibition (%), 10 µM): > 85% | Percentage of inhibited DPPH (2 h) ([2]; 0,03 mg/ml): 78,00 ± 1,73% | Percentage of inhibited DPPH (2 h) ([2]; 0,06 mg/ml): 78,33 ± 1,76% | time to reach the plateau of the DPPH kinetic curve ([2]; 0.015 mg/mL): 30 min | Percentage of inhibited DPPH (2 h) ([2]; 0,015 mg/ml): 77,33 ± 0,88% | inhibition of DPPH after 2 h ([2]; all tested concentrations (0.06, 0.03 and 0.015 mg/mL)): more than 60% | acute toxicity in the PK study ([3]; 5 mg/kg intravenous and 50 mg/kg oral): no signs of acute toxicity | bioavailability ([3]; female, Balb/c, mouse, plasma, 50 mg/kg oral vs 5 mg/kg intravenous): 82% | Cmax at 0.5 h ([3]; female, Balb/c, mouse, plasma, oral dose 50 mg/kg): 2300 nM | half-life ([3]; female, Balb/c, mouse, plasma, other: intravenous and oral, 5 mg/kg intravenous and 50 mg/kg oral, read-out: half-life (T 1/2)): < 1 h | time of C max post administration ([3]; oral dose 50 mg/kg): 30 min
